Entries after “also recorded” stand apart in the source; their conditions may differ. Like-named read-outs stand apart in the source and are kept apart here.
Experiments:
[1] = tested on: prefrontal cortex; assay: Evoked-response potential (ERP) recorded in the prefrontal cortex following electrical stimulation of the ventral subiculum of the hippocampus; assay type: in vivo, rat; settings: for effect on the ERP recorded in the PFC (change from baseline): cognition-enhancing dose 0.5 mg/kg i.p., 0-30 min after administration, 0.5 mg/kg
Excerpt: Male Sprague-Dawley rats (250-350 g) were surgically implanted with 1-4 EEG recording electrodes into the prelimbic region of the PFC (coordinates: A +3.0±1.0 mm; L 0.8±0.3 mm; V −3.0) and a stimulation electrode into the subiculum/CA1 region of the hippocampus (coordinates: A −6.7; L 5.5; V −6.5). EEG signals were referenced to a ground electrode. Electrodes were held in place with acrylic cement and the animals were allowed to recover for 5-10 days prior to the measurements. Animals were provided with free access to food and water during testing.
Animals were tested during daylight hours in a Plexiglas testing chamber (32×32×40 cm) housed in a sound-attenuating chamber. Animals were first habituated to the testing chamber prior to experimentation. Field potentials/EEG signals were amplified and recorded digitally.
ERPs were constructed from peristimulus time histograms. Stimulation intensity that provides a distinct, though not large, ERP (filtered approx. 0.5-150 Hz) was first confirmed from greater than or equal to 50 stimulations that were provided at greater than or equal to 0.1 Hz. Stimulus current (0.1-3.0 mA) from a constant current source was adjusted to produce ERPs that were at least detectable from background electrical activity. Following this calibration of subiculum/CA1 stimulation intensity, ERPs were then collected from one or two 15-minute blocks comprised of a 10-min of hippocampal stimulation period ([…]) followed by 5-minutes of no stimulation. Following baseline recordings, vehicle or a putative cognitive enhancing compound (i.e., psychostimulant such as MPH or other drugs) were administered. ERPs were recorded in 15-min blocks described above for the next 60-90-minutes.
Changes in ERPs were calculated from trial-bin counts used to generate peristimulus time histograms (PSTHs). Data were collected from non-sleep EEG states only, as determined from field potential recordings or in combination with video or other activity measurements. Each PSTH was generated from randomly selected stimulus presentations. Data were expressed as a percentage of baseline ERP activity (pre-vehicle or pre-MPH) and percentage change from saline, which permits comparisons between subjects with different magnitude/shape ERPs.
Appropriate statistical comparisons, including mixed two-way ANOVA with both repeated (time)- and between (treatments)-measures, were used to determine statistical significance of candidate compound-induced changes in PFC. Analyses of ERPs as a function of dose and time and post-hoc comparisons were performed (i.e., Fisher LSD test).

[2] = tested on: PFC-dependent cognition; settings: rats, cited from earlier work
[3] = tested on: catecholamine (norepinephrine and dopamine) neurotransmission; settings: moderately higher doses that do not improve PFC-dependent cognition; cited from earlier work

Compound: COC(=O)C(c1ccccc1)C1CCCCN1 (stereo not shown) [MPH, methylphenidate]
- components of the ERP versus pre-treatment recordings (baseline) ([1]; 30-60 minute period following drug treatment): a number of components of the ERP were different
- effect on the ERP recorded in the PFC (change from baseline) [1]: clearly visible and distinct change from baseline; also recorded: alter the magnitude of specific components of the ERP
- effect on the ERP recorded in the PFC (change from baseline) ([1]; listed as methylphenidate): significant effects
- effect on the ERP recorded in the PFC ([1]; higher doses that do not improve PFC-dependent cognition (2.0 mg/kg i.p.)): do not significantly affect this ERP; also recorded: not observed
- effect on PFC-dependent cognition ([2]; 0.5 mg/kg): exerting cognition-enhancing effects
- effect on PFC-dependent cognition ([2]; 2.0 mg/kg): cognition-impairing; also recorded: lacking cognition-enhancing actions
- selective targeting of prefrontal cortical catecholamines [3]: not observed
